# Measurements from patent publication US20240092784A1, “CONDENSED HETEROCYCLIC COMPOUND” (NISSAN CHEMICAL CORPORATION, priority 2020, published 2024).
# Structures can show the parent of a compound that is named as a salt.
# Target: human SPR (Homo sapiens (Human), UniProt P35270)
# Assay: Evaluation Example 2: Measurement of human SPR inhibitory activity (seven concentrations, sepiapterin absorbance at 420 nm)
# Format: biochemical
# Conditions: Evaluation Example 2, seven concentrations 0.14 nM to 100 nM, 240 minutes at room temperature, read-out: IC50
# Method in brief: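 His-tagged full-length human SPR (1-261) was expressed in E. coli and the tag removed. Enzyme at 150 ng/mL in 100 mM Tris-HCl pH 7.5/0.01% BSA was mixed with compound (0.14–100 nM, seven points), 120 μM sepiapterin and 160 μM NADPH, both as added-solution concentrations. After 240 min at room temperature, remaining sepiapterin was read at 420 nm to give percent inhibition.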
# Sequence of human SPR (P35270 whole entry): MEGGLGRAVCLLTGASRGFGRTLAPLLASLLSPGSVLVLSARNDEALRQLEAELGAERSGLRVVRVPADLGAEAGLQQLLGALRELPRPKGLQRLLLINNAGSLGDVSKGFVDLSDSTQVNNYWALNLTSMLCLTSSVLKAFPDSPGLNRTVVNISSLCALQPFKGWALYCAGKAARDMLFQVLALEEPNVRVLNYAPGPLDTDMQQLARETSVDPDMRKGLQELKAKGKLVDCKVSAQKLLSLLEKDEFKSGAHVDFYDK
row,SMILES,IC50 [nM]
1,"CC(C)(C)Cn1c(=O)c(C(=O)NC2CC2)c(O)n2nc(N)c(Cl)c12 [compound 447, 2-Amino-3-chloro-N-cyclopropyl-7-hydroxy-4-neopentyl-5-oxo-4,5-dihydropyrazolo[1,5-a]pyrimidine-6-carboxamide hydrochloride]",2.16
2,"CC(C)(C)Cn1c(=O)c(C(=O)NC2CC2)c(O)n2nc(-c3cccnc3N)c(Br)c12 [compound 448, 2-(2-Aminopyridin-3-yl)-3-bromo-N-cyclopropyl-7-hydroxy-4-neopentyl-5-oxo-4,5-dihydropyrazolo[1,5-a]pyrimidine-6-carboxamide]",8.22
3,"CC(C)Cn1c(=O)c(C(=O)NC2CC2)c(O)n2nc(-c3cccnc3N)c(/C=C/C(=O)N3CCOCC3)c12 [compound 449, (E)-2-(2-Aminopyridin-3-yl)-N-cyclopropyl-7-hydroxy-4-isobutyl-3-(3-morpholino-3-oxoprop-1-en-1-yl)-5-oxo-4,5-dihydropyrazolo[1,5-a]pyrimidine-6-carboxamide]",0.84
4,"CC(C)Cn1c(=O)c(C(=O)NC2CC2)c(O)n2nc(C(N)=O)c(/C=C/C(=O)N3CCOCC3)c12 [compound 450, (E)-N6-Cyclopropyl-7-hydroxy-4-isobutyl-3-(3-morpholino-3-oxoprop-1-en-1-yl)-5-oxo-4,5-dihydropyrazolo[1,5-a]pyrimidine-2,6-dicarboxamide]",0.6
5,"CC(C)Cn1c(=O)c(C(=O)NC2CC2)c(O)n2nc(C(N)=O)c(/C=C/C3CCOCC3)c12 [compound 451, (E)-N6-Cyclopropyl-7-hydroxy-4-isobutyl-5-oxo-3-(2-(tetrahydro-2H-pyran-4-yl)vinyl)-4,5-dihydropyrazolo[1,5-a]pyrimidine-2,6-dicarboxamide]",0.69
6,"CC(C)Cn1c(=O)c(C(=O)NC2CC2)c(O)n2ncc(/C=C/C(=O)N3CCCC3)c12 [compound 452, (E)-N-Cyclopropyl-7-hydroxy-4-isobutyl-5-oxo-3-(3-oxo-3-(pyrrolidin-1-yl)prop-1-en-1-yl)-4,5-dihydropyrazolo[1,5-a]pyrimidine-6-carboxamide]",0.83
7,"CC(C)Cn1c(=O)c(C(=O)NC2CC2)c(O)n2ncc(/C=C/C(=O)N3CCC(F)(F)C3)c12 [compound 453, (E)-N-Cyclopropyl-3-(3-(3,3-difluoropyrrolidin-1-yl)-3-oxoprop-1-en-1-yl)-7-hydroxy-4-isobutyl-5-oxo-4,5-dihydropyrazolo[1,5-a]pyrimidine-6-carboxamide]",0.82
8,"CC(C)Cn1c(=O)c(C(=O)NC2CC2)c(O)n2ncc(/C=C/C(=O)N3CC[C@H](F)C3)c12 [compound 454, (S,E)-N-Cyclopropyl-3-(3-(3-fluoropyrrolidin-1-yl)-3-oxoprop-1-en-1-yl)-7-hydroxy-4-isobutyl-5-oxo-4,5-dihydropyrazolo[1,5-a]pyrimidine-6-carboxamide]",0.75
9,"CC(C)Cn1c(=O)c(C(=O)NC2CC2)c(O)n2ncc(/C=C/C(=O)N3CCOC[C@@H]3C)c12 [compound 455, (S,E)-N-Cyclopropyl-7-hydroxy-4-isobutyl-3-(3-(3-methylmorpholino)-3-oxoprop-1-en-1-yl)-5-oxo-4,5-dihydropyrazolo[1,5-a]pyrimidine-6-carboxamide]",0.72
10,"CC(C)Cn1c(=O)c(C(=O)NC2CC2)c(O)n2ncc(/C=C/C(=O)N3CC4CCC(C3)O4)c12 [compound 456, (E)-3-(3-(8-Oxa-3-azabicyclo[3.2.1]octan-3-yl)-3-oxoprop-1-en-1-yl)-N-cyclopropyl-7-hydroxy-4-isobutyl-5-oxo-4,5-dihydropyrazolo[1,5-a]pyrimidine-6-carboxamide]",0.58
11,"CC(C)Cn1c(=O)c(C(=O)NC2CC2)c(O)n2ncc(/C=C/C(=O)N3[C@@H](C)COC[C@@H]3C)c12 [compound 457, N-Cyclopropyl-3-((E)-3-((3S,5S)-3,5-dimethylmorpholino)-3-oxoprop-1-en-1-yl)-7-hydroxy-4-isobutyl-5-oxo-4,5-dihydropyrazolo[1,5-a]pyrimidine-6-carboxamide]",0.81
12,"CC(C)Cn1c(=O)c(C(=O)NC2CC2)c(O)n2ncc(/C=C/C(=O)N3CCC[C@@H]3C)c12 [compound 458, (S,E)-N-Cyclopropyl-7-hydroxy-4-isobutyl-3-(3-(2-methylpyrrolidin-1-yl)-3-oxoprop-1-en-1-yl)-5-oxo-4,5-dihydropyrazolo[1,5-a]pyrimidine-6-carboxamide]",0.79
13,"CC(C)Cn1c(=O)c(C(=O)NC2CC2)c(O)n2ncc(/C=C/C(=O)N3CCOCC3(C)C)c12 [compound 459, (E)-N-Cyclopropyl-3-(3-(3,3-dimethylmorpholino)-3-oxoprop-1-en-1-yl)-7-hydroxy-4-isobutyl-5-oxo-4,5-dihydropyrazolo[1,5-a]pyrimidine-6-carboxamide]",0.74
14,"CC(C)Cn1c(=O)c(C(=O)NC2CC2)c(O)n2ncc(/C=C/C(=O)N3CCN(C4CC(F)(F)C4)CC3)c12 [compound 460, (E)-N-Cyclopropyl-3-(3-(4-(3,3-difluorocyclobutyl)piperazin-1-yl)-3-oxoprop-1-en-1-yl)-7-hydroxy-4-isobutyl-5-oxo-4,5-dihydropyrazolo[1,5-a]pyrimidine-6-carboxamide]",1.24
15,"CC(C)Cn1c(=O)c(C(=O)NC2CC2)c(O)n2ncc(/C=C/C(=O)N3CCCOCC3)c12 [compound 461, (E)-3-(3-(1,4-Oxazepan-4-yl)-3-oxoprop-1-en-1-yl)-N-cyclopropyl-7-hydroxy-4-isobutyl-5-oxo-4,5-dihydropyrazolo[1,5-a]pyrimidine-6-carboxamide]",0.75
16,"CC(C)Cn1c(=O)c(C(=O)NC2CC2)c(O)n2ncc(/C=C/C(=O)N3CCN(C(C)C)CC3)c12 [compound 462, (E)-N-Cyclopropyl-7-hydroxy-4-isobutyl-3-(3-(4-isopropylpiperazin-1-yl)-3-oxoprop-1-en-1-yl)-5-oxo-4,5-dihydropyrazolo[1,5-a]pyrimidine-6-carboxamide]",0.96

# Same assay, conditions: sepiapterin absorbance, Table 41, read-out: concentration at 50% inhibition of human SPR (IC50)
row,SMILES,IC50 [nM]
1,"Cc1nn2c(O)c(C(=O)NC3CC3)c(=O)n(CC(C)C)c2c1/C=C/C(=O)N1CCc2cncnc21 [Synthesis Example 752, (E)-N-Cyclopropyl-3-(3-(5,6-dihydro-7H-pyrrolo[2,3-d]pyrimidin-7-yl)-3-oxoprop-1-en-1-yl)-7-hydroxy-4-isobutyl-2-methyl-5-oxo-4,5-dihydropyrazolo[1,5-a]pyrimidine-6-carboxamide]",0.88
2,"Cc1nn2c(O)c(C(=O)NC3CC3)c(=O)n(CC(C)C)c2c1/C=C/C(=O)N1C[C@@H]2C[C@H]1CO2 [Synthesis Example 753, 3-((E)-3-((1S,4S)-2-Oxa-5-azabicyclo[2.2.1]heptan-5-yl)-3-oxoprop-1-en-1-yl)-N-cyclopropyl-7-hydroxy-4-isobutyl-2-methyl-5-oxo-4,5-dihydropyrazolo[1,5-a]pyrimidine-6-carboxamide]",0.48
3,"Cc1nn2c(O)c(C(=O)NC3CC3)c(=O)n(CC(C)C)c2c1/C=C/C(=O)N1C[C@H]2C[C@@H]1CO2 [Synthesis Example 754, 3-((E)-3-((1R,4R)-2-Oxa-5-azabicyclo[2.2.1]heptan-5-yl)-3-oxoprop-1-en-1-yl)-N-cyclopropyl-7-hydroxy-4-isobutyl-2-methyl-5-oxo-4,5-dihydropyrazolo[1,5-a]pyrimidine-6-carboxamide]",0.83
